Assay results as given in patent publication EP4778929A1, “NOVEL TYPE I TOPOISOMERASE INHIBITOR, AND PREPARATION METHOD THEREFOR AND USE THEREOF” (priority 2023, dated 2025).
Like-named read-outs stand apart in the source and are kept apart here.

How the values were obtained:
in vivo = assay: in vivo
Description: Test Example 3. Pharmacokinetic Study for Determining Compound Concentrations in Mice by LC-MS/MS
Principle: LC-MS/MS is used to quantify the plasma concentrations of the test article at successive time points, generating an in-vivo pharmacokinetic profile.
Procedure: The test compound was dissolved in DMSO to prepare a 10 mg/mL stock solution. This stock was further diluted to 1 mg/mL with a vehicle consisting of 10 % DMSO + 10 % Solutol HS-15 + 80 % saline. Male CD-1 mice (JH Laboratory Animal Co., LTD) were employed; six animals were assigned per compound group. […] Serial blood samples (~50 µL whole blood, K2EDTA anticoagulant) were collected at 0.083, 0.25, 0.5, 1, 2, 4, 8 and 24 h (three mice per time point in a crossover design). Blood was centrifuged at 6 000 g for 5 min at 4 °C; plasma was harvested and stored at -70 °C until analysis. Plasma drug concentrations were determined by LC-MS/MS.
Calibration Curve and QC Preparation: Working solutions were prepared by dilution with MeOH:H2O (1:1). For each calibration or QC level, 3 µL of working solution was spiked into 57 µL of blank mouse plasma.
Sample Processing: To 30 µL of plasma was added 200 µL of methanol containing the internal standard (propranolol, 40 ng mL^-1). After vortex-mixing for 1 min, the mixture was centrifuged at 12 000 rpm for 10 min. A 100 µL aliquot of the supernatant was transferred to a clean plate for injection.
Pharmacokinetic Analysis: Concentration-time data were analyzed with WinNonlin 8.2 using a non-compartmental approach to derive PK parameters including Cmax, Tmax, AUC and terminal elimination half-life (t1/2). AUC was calculated by the linear-up/log-down trapezoidal method. Table 3. Pk parameters of compounds

HCT116 cells = assay: Inhibition of cell proliferation by CTG (CellTiter-Glo) luminescence assay; format: cell-based; details: Homo sapiens, HCT-116; 72 h incubation, CellTiter-Glo; read-out: HCT116, IC50
Source text: Test Example 2. Determination of Compound-Mediated Inhibition of Cell Proliferation by CTG (CellTiter-Glo) Luminescence Assay
Principle: The Promega CellTiter-Glo™ luciferase reagent was used. Luciferase consumes ATP to generate light; metabolically active cells continuously produce ATP through respiration and other processes. After adding an equal volume of CellTiter-Glo™ reagent to the culture medium, the resulting luminescence is directly proportional to the ATP content, which in turn correlates with the number of viable cells. Thus, the assay quantifies compound-induced suppression of cell proliferation.
Experimental Procedure: HCT116 cells (ATCC) were revived in complete medium (McCoy's 5a + 10 % FBS). After two passages, exponentially growing cells were harvested, counted, and resuspended to the appropriate density. A 100 µL aliquot of cell suspension (2 000 cells per well) was seeded into 96-well plates and incubated overnight (37 °C, 5 % CO2, 100 % relative humidity). Test compounds were dissolved in DMSO to prepare 10 mM stock solutions and serially diluted 1:3 in DMSO to generate nine concentration steps. Each DMSO solution was further diluted 200-fold into medium; 25 µL of the resulting solutions were added to the cell plates (final DMSO concentration […]). After 72 h incubation (37 °C, 5 % CO2), 50 µL of CellTiter-Glo reagent was added per well. Plates were shaken gently, incubated for 30 min at room temperature in the dark, and luminescence was read on an EnVision multimode reader. Percent inhibition was calculated as: Inhibition % = (1−As/Ac) × 100, [formula] where As = signal from compound-treated wells and Ac = signal from DMSO-only control wells. Concentration-response data were fitted in Excel with the XLfit add-in using the four-parameter logistic equation: Y = Bottom + (Top−Bottom)/[1+((IC50/X))^(∧)HillSlope], [formula] to derive the IC50 value for each compound. Table 2. IC50 of compounds

topoisomerase I (Topo I) = target: T1, topoisomerase I (Topo I) (Homo sapiens, UniProt P11387); assay: Topo I enzyme-inhibitory activity by agarose-gel electrophoresis (plasmid relaxation); format: biochemical
T1 sequence (P11387 1-765): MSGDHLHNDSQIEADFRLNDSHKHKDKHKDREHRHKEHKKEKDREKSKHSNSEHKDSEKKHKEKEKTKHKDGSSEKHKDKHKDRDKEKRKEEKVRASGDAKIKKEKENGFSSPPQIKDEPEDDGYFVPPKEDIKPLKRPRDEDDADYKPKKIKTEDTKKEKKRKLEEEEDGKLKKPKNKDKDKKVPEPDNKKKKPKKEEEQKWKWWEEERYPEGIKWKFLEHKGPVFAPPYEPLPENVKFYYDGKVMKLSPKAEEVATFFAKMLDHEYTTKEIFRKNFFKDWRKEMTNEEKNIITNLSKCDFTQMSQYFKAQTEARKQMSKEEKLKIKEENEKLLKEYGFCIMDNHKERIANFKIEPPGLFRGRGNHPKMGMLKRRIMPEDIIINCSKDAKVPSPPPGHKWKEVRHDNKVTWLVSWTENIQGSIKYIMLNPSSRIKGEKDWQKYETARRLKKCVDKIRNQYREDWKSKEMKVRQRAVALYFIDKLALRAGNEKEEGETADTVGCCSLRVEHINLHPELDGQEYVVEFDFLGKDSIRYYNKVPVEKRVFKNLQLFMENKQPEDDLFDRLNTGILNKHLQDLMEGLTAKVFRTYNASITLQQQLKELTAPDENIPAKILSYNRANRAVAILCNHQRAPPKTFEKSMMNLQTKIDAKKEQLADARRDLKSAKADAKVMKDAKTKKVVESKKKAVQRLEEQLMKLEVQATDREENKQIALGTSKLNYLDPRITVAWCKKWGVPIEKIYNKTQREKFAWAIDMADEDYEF
Source text: Test Example 1. Determination of Topo I Enzyme-Inhibitory Activity by Agarose-Gel Electrophoresis
Principle: Type-I topoisomerase (Topo I) relaxes positive and negative supercoils by introducing transient single-strand breaks and forming reversible cleavage complexes (Topo I-DNA covalent complexes). Gel electrophoresis can resolve DNA species of identical molecular weight but different topology: supercoiled plasmid migrates fastest, whereas the nicked, relaxed form moves more slowly. Quantifying the decrease in supercoiled DNA therefore provides a direct measure of Topo I activity.
Experimental Procedure: A 1× reaction buffer was prepared (20 mM Tris-HCl pH 7.5, 200 mM NaCl, 0.25 mM EDTA, 5 % (v/v) glycerol, 0.5 µg pNO1 plasmid substrate). Test compounds (5 % DMSO final) were added to the buffer, followed by Topo I enzyme (0.75 U per reaction). After gentle mixing, reactions were incubated at 37 °C for 30 min. Positive (enzyme + vehicle) and negative (no enzyme) controls were included in parallel. Reactions were terminated by adding STEB buffer and chloroform/iso-amyl alcohol (24:1, v/v), vortexed and centrifuged for 2 min. The aqueous (upper) phase was loaded onto a 1 % (w/v) agarose gel, electrophoresed for 1-2 h, stained with GelRed, and imaged under UV trans-illumination.
Data Analysis: Band intensities of supercoiled DNA were quantified with image-analysis software. Relaxation activity (%) was calculated as (Max-Sample)/ (Max-Min)*100%, where Max = intensity of the no-enzyme negative control, Min = intensity of the vehicle-only positive control, and Sample = intensity of the compound-treated lane. Dose-response data (compound concentration, X; relaxation activity %, Y) were fitted in Excel or GraphPad Prism 5.0 using the four-parameter logistic equation: Y=Bottom + (Top-Bottom)/(1+(IC50/X)[…]) to derive the IC50 value for each compound.
Table 1. Compound-mediated inhibition of topoisomerase I (Topo I) enzymatic activity

[1] = male, CD-1, mouse, po, 10 mg/kg
[2] = 0.75 U Topo I, pNO1 plasmid, 37 °C, 30 min; compounds listed by group (Group A / Group B); read-out: inhibition of topoisomerase I (Topo I) enzymatic activity, IC50

Compound | bioavailability (in vivo; male, CD-1, mouse) [%] | AUC(0-t) (in vivo; male, CD-1, mouse, iv, 1 mg/kg) [ng·h/mL] | Cmax (in vivo; male, CD-1, mouse, iv, 1 mg/kg) [ng/mL] | clearance (in vivo; male, CD-1, mouse, iv, 1 mg/kg) [mL/min/kg] | half-life (in vivo; male, CD-1, mouse, iv, 1 mg/kg) [min] | AUC(0-t) (in vivo; [1]) [ng·h/mL] | Cmax (in vivo; [1]) [ng/mL] | Tmax (in vivo; [1]) [min] | half-life (in vivo; [1]) [min] | IC50 (HCT116 cells) [nM] | IC50 (topoisomerase I (Topo I); [2]) [nM] | other results
CC[C@@]1(O)C(=O)OCc2c1cc1n(c2=O)Cc2c-1c(=O)c1cc(F)ccc1n2[C@@H]1CCN(C2CCCC2)C1 [Example 257, (S)-4-ethyl-8-fluoro-4-hydroxy-11-((R)-1-cyclopentylpyrrolidin-3-yl)-1,12-dihydro-14H-pyrano[3',4':6,7]indolizino[2,1-b] quinoline-3,6,14(4H,11H)-trione] | 40.2 | 352 | 635 | 47.4 | 74.4 | 1370 | 528 | 49.8 | 477 | < 20 |  | 
CC[C@@]1(O)C(=O)OCc2c1cc1n(c2=O)Cc2c-1c(=O)c1cc(F)c([C@H](C)O)cc1n2C1CCCC1 (single isomer, unassigned) [Example 293] |  |  |  |  |  |  |  |  |  |  | 200 to 500 | 
CC[C@@]1(O)C(=O)OCc2c1cc1n(c2=O)Cc2c-1c(=O)c1cc(F)c(CC(C)O)cc1n2C1CCCC1 (stereo partly drawn) [Example 292, (4S)-11-cyclopentyl-4-ethyl-8-fluoro-4-hydroxy-9-(2-hydroxypropyl)-1,12-dihydro-14H-pyrano[3,4:6,7]indolizino[2,1-b]quinoline-3,6,14(4H,11H)-trione] |  |  |  |  |  |  |  |  |  |  | 200 to 500 | 
CC[C@@]1(O)C(=O)OCc2c1cc1n(c2=O)Cc2c-1c(=O)c1cc(F)ccc1n2[C@@H]1CCN(CC2CC2)C1 [Example 259, (S)-11-((R)-1-(cyclopropylmethyl)pyrrolidin-3-yl)-4-ethyl-8-fluoro-4-hydroxy-1H-pyrano[3',4':6,7]indolizino[2,1-b]quinoline-3,6,14(4H,11H,12H)-trione] | 46.6 | 524 | 497 | 31.8 | 57.6 | 2400 | 1230 | 49.8 | 374 | < 20 |  | 
CCc1c2c(nc3ccc(O)cc13)-c1cc3c(c(=O)n1C2)COC(=O)[C@]3(O)CC [SN38] |  |  |  |  |  |  |  |  |  |  |  | AUC(0-t) at 24 h (in vivo; mouse, iv, 1 mg/kg): 103 ng·h/mL; Cmax (in vivo; mouse, iv, 1 mg/kg): 278 ng/mL; clearance (in vivo; mouse, iv, 1 mg/kg): 163 mL/min/kg; half-life (in vivo; mouse, iv, 1 mg/kg): 34 min; AUC(0-t) at 24 h (in vivo; mouse, po, 10 mg/kg): 0.23 ng·h/mL; Cmax (in vivo; mouse, po, 10 mg/kg): 1.87 ng/mL
CC[C@@]1(O)C(=O)OCc2c1cc1n(c2=O)Cc2c-1c(=O)c1cc3c(cc1n2CCN(C)C1CCCC1)OCO3 [Example 179] |  |  |  |  |  |  |  |  |  |  |  | IC50 (topoisomerase I (Topo I); read-out: inhibition of topoisomerase I (Topo I) enzymatic activity, IC50; 0.75 U Topo I, pNO1 plasmid, 37 °C, 30 min; compounds listed by group (Group A / Group B)): 200 to 500 nM
